The text below walks through data of publication PMC10349806 (Nature Communications, 2023).

In test [1] the test system is PfCRT variant E207D. In words: CQ uptake assay, oocytes expressing E207D. The format is cell-based, Plasmodium falciparum. Here is the method: (§1) Site-directed mutagenesis of PfCRT^Dd2 was performed as described using the megaprimer method with overlap extension[21],[54]. The primer pairs used are listed in Supplementary Table 6. Please note that a codon-optimized and oocyte-adapted version of PfCRT^Dd2 was used[22] (Supplementary Fig. 16). The resulting DNA fragment was cloned into the SP64T expression vector and verified by sequencing.
(§2) Oocytes were obtained as described previously. Briefly, adult (>2 years old) female X. laevis frogs (NASCO) were anesthetized in a cooled solution of ethyl 3-amino benzoate methanesulfonate (0.1%, w/v), followed by a surgical removal of parts of the ovary. The ovary lobes were carefully dissected and small pieces of oocytes were incubated in Ca^2+-free ND96 buffer (96 mM NaCl, 2 mM KCl, 1 mM MgCl2 buffered with 5 mM HEPES/NaOH, pH 7.5) supplemented with collagenase D (0.1%, w/v; Roche), BSA (0.5%, w/v), and 9 mm Na2HPO4 at 18 °C for 14-16 h while gentle shaking. After incubation, the oocytes were carefully washed several times with ND96 buffer (96 mM NaCl, 2 mM KCl, 1.8 mM CaCl2, 1 mM MgCl2 buffered with 5 mM HEPES/NaOH, pH 7.5) supplemented with 100 mg l^−1 gentamycin). Defolliculated and healthy-looking stage V-VI oocytes were manually selected for RNA microinjection. The RNA was generated as following: The codon-optimized sequences of PfCRT variants were cloned into the pSP64T expression vector. After vector linearization using the restriction endonucleases BamHI or SalI (New England Biolabs), transcription was performed using the in vitro SP6 mMessage mMachine Kit (Ambion)[34]. The obtained RNA was kept at −80 °C and diluted with nuclease-free water to a concentration of 0.6 μg μl^−1. Precision-bore glass capillary tubes (3.5-inch glass capillaries; Drummond Scientific Co.) were pulled on a vertical puller (P-87 Flaming/Brown micropipette puller, Sutter Instrument Co.), graduated, and placed on a microinjector (Nanoject II Auto-Nanoliter Injector, Drummond Scientific Co.). 50 nl of nuclease-free water alone (control oocytes) or 50 nl of 0.6 μg μl^−1 RNA were injected under stereomicroscopic control. Injected oocytes were incubated for 46–72 h at 18 °C with twice-daily buffer changes before usage in experiments.
(§3) Drug uptake assays were performed as described previously[21],[22],[24],[34]. […] The direction of radio-labeled drug transport is here from the mostly acidic extracellular solution (pH 4.5 or 6.0, as indicated) into the oocyte cytosol (pH ∼ 7.2), which corresponds to the efflux of drug from the acidic digestive vacuole (pH 5.2) into the parasite cytoplasm (pH 7.2). The topology of PfCRT in the oolemma is such that both the N- and C-terminus face the extracellular milieu[3],[22]. In the parasite, the N- and C-terminus face the lumen of the digestive vacuole. CQ uptake kinetics were performed by incubating oocytes in ND96 buffer adjusted to a pH of 4.5, 5.0, 5.5, or 6.0 and supplemented with 50 nM [^3H]CQ and one of 7 different CQ concentrations (10 µM, 50 µM, 100 µM, 200 µM, 300 µM, 400 µM, 500 µM CQ). The reaction was stopped at the 60 min time point, which is in the linear uptake range[22],[34] (Supplementary Fig. 17). For determination of the amount of drug uptake for each oocyte, the reaction medium was removed and the oocytes were washed three times with 2 ml of ice-cold ND96 buffer. Each oocyte was individually transferred to a scintillation vial containing 5% sodium dodecyl sulfate (200 μl) for lysis. The radioactivity of each sample was measured using a liquid scintillation analyzer Tri-Carb 4910 TR (PerkinElmer). Oocytes that were injected with water instead of RNA were analyzed in parallel, representing the uptake of a drug by diffusion and/or endogenous permeation pathways. The resulting value represents the “background“ level of drug accumulation in oocytes (in-depth discussion in[22]). […]

The subject of test [2] is PfCRT variant E207K. Briefly: CQ uptake assay, oocytes expressing E207K. Type of test: cell-based, Plasmodium falciparum. Here is the method:
as §1, §2, §3

Test [3] concerns the target T1, PfCRT variant H273A (Plasmodium falciparum, UniProt Q9N623, A220S/H273A/I356T/K76T/M74I/N326S/N75E/Q271E/R371I).
T1 sequence (Q9N623 1-424 M74I/N75E/K76T/A220S/Q271E/H273A/N326S/I356T/R371I): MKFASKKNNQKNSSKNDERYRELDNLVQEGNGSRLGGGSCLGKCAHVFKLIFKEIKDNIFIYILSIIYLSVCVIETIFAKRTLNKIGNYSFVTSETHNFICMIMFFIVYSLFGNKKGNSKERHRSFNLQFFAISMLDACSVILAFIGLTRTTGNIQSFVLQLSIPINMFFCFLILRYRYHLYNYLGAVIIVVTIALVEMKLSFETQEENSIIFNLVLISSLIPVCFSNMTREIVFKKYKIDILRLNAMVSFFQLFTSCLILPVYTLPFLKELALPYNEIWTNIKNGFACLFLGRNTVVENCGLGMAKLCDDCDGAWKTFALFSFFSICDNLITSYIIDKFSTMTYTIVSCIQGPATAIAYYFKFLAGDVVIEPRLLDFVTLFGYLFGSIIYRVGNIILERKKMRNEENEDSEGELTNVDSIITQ
Briefly: CQ uptake assay, oocytes expressing H273A. The format is cell-based. The procedure: as §1, §2
Drug uptake assays were performed as described previously[21],[22],[24],[34]. […] The direction of radio-labeled drug transport is here from the mostly acidic extracellular solution (pH 4.5 or 6.0, as indicated) into the oocyte cytosol (pH ∼ 7.2), which corresponds to the efflux of drug from the acidic digestive vacuole (pH 5.2) into the parasite cytoplasm (pH 7.2). The topology of PfCRT in the oolemma is such that both the N- and C-terminus face the extracellular milieu[3],[22]. In the parasite, the N- and C-terminus face the lumen of the digestive vacuole. CQ uptake kinetics were performed by incubating oocytes in ND96 buffer adjusted to a pH of 4.5, 5.0, 5.5, or 6.0 and supplemented with 50 nM [^3H]CQ and one of 7 different CQ concentrations (10 µM, 50 µM, 100 µM, 200 µM, 300 µM, 400 µM, 500 µM CQ). The reaction was stopped at the 60 min time point, which is in the linear uptake range[22],[34] (Supplementary Fig. 17). […] The radioactivity of each sample was measured using a liquid scintillation analyzer Tri-Carb 4910 TR (PerkinElmer). Oocytes that were injected with water instead of RNA were analyzed in parallel, representing the uptake of a drug by diffusion and/or endogenous permeation pathways. […]

[4] abbreviates: E207D, 50 µM CQ, 1 h, mean ± SEM.
Setting [5] is: pH 4.5, individual replicates, Fig 6b.
[6] abbreviates: pH 6.0, individual replicates, Fig 6b.
[7] abbreviates: ratio of activity pH 4.5 / pH 6.0.
The mark [8] stands for this setting: E207K, 50 µM CQ, 1 h, mean ± SEM.
Setting [9] is: H273A, 50 µM CQ, 1 h, mean ± SEM.

Values joined by “and” are separate entries in the source; they are usually repeats but may differ in a detail not shown here. Equal values may be shown once.

As for `CCN(CC)CCCC(C)Nc1ccnc2cc(Cl)ccc12` (centres unmarked) [CQ, chloroquine], the figures for the “Activity at pH 4.5” value in test [1] (setting [4]), in test [2] (setting [8]) and in test [3] (setting [9]) were 1.82 ± 0.06 pmol h-1 oocyte-1, 1.91 ± 0.10 pmol h-1 oocyte-1 and 0.08 ± 0.04 pmol h-1 oocyte-1, respectively. Also, the “Activity at pH 6.0” value in test [1] (setting [4]) is recorded as 5.13 ± 0.37 pmol h-1 oocyte-1; in test [2] (setting [8]) it was 2.34 ± 0.24 pmol h-1 oocyte-1; in test [3] (setting [9]), 2.43 ± 0.40 pmol h-1 oocyte-1. Besides, the R-value in test [1] (E207D, CQ transport at pH 4.5 / pH 6.0) is on record as 0.36 ± 0.05; in test [2] (E207K, CQ transport at pH 4.5 / pH 6.0) it was 0.83 ± 0.04; in test [3] (H273A, CQ transport at pH 4.5 / pH 6.0) it was 0.03 ± 0.02. The “E207D transport activity pH 4.5” value in test [1] (setting [5]) was 1.93 pmol oocyte-1 h-1 and 1.78 pmol oocyte-1 h-1 and 1.98 pmol oocyte-1 h-1 and 1.89 pmol oocyte-1 h-1 and 1.82 pmol oocyte-1 h-1 and 1.51 pmol oocyte-1 h-1. In test [1] (setting [6]), the “E207D transport activity pH 6.0” value was 4.59 pmol oocyte-1 h-1 and 4.25 pmol oocyte-1 h-1 and 6.63 pmol oocyte-1 h-1 and 6.08 pmol oocyte-1 h-1 and 4.42 pmol oocyte-1 h-1 and 4.78 pmol oocyte-1 h-1. For the same compound, in test [1] (setting [7]), the “E207D R-value” was 0.42 and 0.30 and 0.31 and 0.41 and 0.32. In test [2] (setting [5]), the “E207K transport activity pH 4.5” value was 2.09 pmol oocyte-1 h-1 and 1.67 pmol oocyte-1 h-1 and 1.96 pmol oocyte-1 h-1. Further, the “E207K transport activity pH 6.0” value in test [2] (setting [6]) was 2.92 pmol oocyte-1 h-1 and 1.97 pmol oocyte-1 h-1 and 2.13 pmol oocyte-1 h-1. Also, the “E207K R-value” in test [2] (setting [7]) was 0.72 and 0.85 and 0.92. In test [3] (pH 4.5, single replicates, Fig 1d left), the “H273A transport activity pH 4.5” value is 0.17 pmol oocyte-1 h-1 and 0.00 pmol oocyte-1 h-1 and 0.06 pmol oocyte-1 h-1. Moreover, the “H273A transport activity pH 6.0” value in test [3] (pH 6.0, single replicates, Fig 1d left) was 2.70 pmol oocyte-1 h-1 and 3.11 pmol oocyte-1 h-1 and 1.48 pmol oocyte-1 h-1.
